Test results reported in US11026984B2, “Use of isothiocyanate derivatives as modulators of peripheral and neuropathic pain” (Indena S.P.A., priority 2015, dated 2021).

Tested on: oxaliplatin induced hyperalgesia in the mouse
Assay: Cold plate test, oxaliplatin induced hyperalgesia in mice
Format: in vivo
Settings: for Licking latency, 15 min after treatment / Licking latency, 30 min after treatment / Licking latency, 45 min after treatment / Licking latency, 60 min after treatment: day 14, oxaliplatin-treated mice; for Licking latency, Pre-test (48 hrs after last oxaliplatin adm.): baseline before treatment, oxaliplatin 2.4 mg/kg i.p., mean of 10 mice
Experimental: The acute oral effect of Moringa oleifera L. seeds extract and purified GMG and GMG-ITC on oxaliplatin induced hyperalgesia in mice (Cold plate test) were evaluated.
The method utilized is a modification of that described by Cavalletti et al. (Cavalletti G. et al., Eur. J. Cancer 37(18), 2457, 2001). Oxaliplatin (2.4 mg/kg) was dissolved in 5% glucose solution and administered i.p. for 5 consecutive days every week for 14 days. On day 14, the test products were suspended in 1% CMC and administered orally. Pregabalin was used, in the same experimental conditions, as a reference active compound at the dose of 15 mg/kg s.c. dissolved in saline.
Pain-related behavior (i.e. lifting and licking of the hind paw) were observed and the time (seconds) of the first sign was recorded.

[1] = group later given 10 mg kg^-1 orally

Row | Compound | Licking latency, 15 min after treatment (10 mg kg^-1 oral, acute) | Licking latency, 30 min after treatment (10 mg kg^-1 oral, acute) | Licking latency, 45 min after treatment (10 mg kg^-1 oral, acute) | Licking latency, 60 min after treatment (10 mg kg^-1 oral, acute) [s] | Licking latency, Pre-test (48 hrs after last oxaliplatin adm.) [1] [s] | Licking latency, 15 min after treatment (15 mg kg^-1 s.c.) | Licking latency, 30 min after treatment (15 mg kg^-1 s.c.) | Licking latency, 45 min after treatment (15 mg kg^-1 s.c.) | Licking latency, 60 min after treatment (15 mg kg^-1 s.c.) [s] | Licking latency, Pre-test (48 hrs after last oxaliplatin adm.) (group later given 15 mg kg^-1 s.c.) [s]
1 | C[C@@H]1O[C@@H](Oc2ccc(C/C(=N/OS(=O)(=O)O)S[C@@H]3O[C@H](CO)[C@@H](O)[C@H](O)[C@H]3O)cc2)[C@H](O)[C@H](O)[C@H]1O [GMG, 4-(α-L-rhamnosyloxy)-benzyl glucosinolate] | 21.1 ± 1.9^^ s | 16.2 ± 0.7^ s | 15.1 ± 1.3^ s | 13.5 ± 2.3 | 10.3 ± 0.5 | – | – | – | – | –
2 | C[C@@H]1O[C@@H](Oc2ccc(CN=C=S)cc2)[C@H](O)[C@H](O)[C@H]1O [GMG-ITC, 4-(α-L-rhamnosyloxy)-benzyl isothiocyanate] | 20.9 ± 1.8^^ s | 16.0 ± 0.6^ s | 15.0 ± 1.2^ s | 13.3 ± 2.1 | 10.2 ± 0.4 | – | – | – | – | –
3 | CC(C)C[C@H](CN)CC(=O)O [pregabalin, reference compound] | – | – | – | – | – | 19.9 ± 1.9^ s | 16.1 ± 0.6^ s | 14.9 ± 1.3^ s | 13.1 ± 2.0 | 11.0 ± 0.7
